A short description of this data set: Solubility in propylene glycol methyl ether acetate. It counts as physicochemical. From the text: 1.0 g of sodium 2-(1′-adamantane)carbonyloxy-1,1-difluoroethanesulfonate synthesized in Synthesis Example 8 was weighed and added to 100 g of propylene glycol methyl ether acetate, followed by stirring.
1.0 g of sodium 2-(3′-hydroxy-1′-adamantane)carbonyloxy-1,1-difluoroethanesulfonate synthesized in Synthesis Example 11 was weighed and added to 100 g of propylene glycol methyl ether acetate, followed by stirring.

Molecules are shown by their SMILES. Like-named read-outs stand apart in the source and are kept apart here.

`O=C(OCC(F)(F)S(=O)(=O)O)C12CC3CC(CC(C3)C1)C2` [Synthesis Example 8, triphenylsulfonium 2-(1′-adamantane)carbonyloxy-1,1-difluoroethanesulfonate]: the Solubility entry was “completely dissolved”.
In the case of `O=C(OCC(F)(F)S(=O)(=O)O)C12CC3CC(CC(O)(C3)C1)C2` [Synthesis Example 11, triphenylsulfonium 2-(3′-hydroxy-1′-adamantane)carbonyloxy-1,1-difluoroethanesulfonate], the Solubility result (1.0 g added to 100 g of propylene glycol methyl ether acetate, stirring) is on record as “completely dissolved”.
